Measurements taken from patent US5281604A, “Angiotensin II receptor blocking 2,3,6-substituted quinazolinones” (American Cyanamid Company, priority 1993, dated 1994).

Molecular target: T1, Angiotensin II Receptor (Bos taurus, UniProt P25104)
T1 construct: beef adrenal glands are processed as follows: fresh adrenal glands received on crushed ice are cleaned of fatty tissues; tissue Maxwell-Cohen (local slaughter house); host or cells: beef adrenal cortex, microsomal membranes (100,000×g pellet)
T1 sequence (P25104 1-359): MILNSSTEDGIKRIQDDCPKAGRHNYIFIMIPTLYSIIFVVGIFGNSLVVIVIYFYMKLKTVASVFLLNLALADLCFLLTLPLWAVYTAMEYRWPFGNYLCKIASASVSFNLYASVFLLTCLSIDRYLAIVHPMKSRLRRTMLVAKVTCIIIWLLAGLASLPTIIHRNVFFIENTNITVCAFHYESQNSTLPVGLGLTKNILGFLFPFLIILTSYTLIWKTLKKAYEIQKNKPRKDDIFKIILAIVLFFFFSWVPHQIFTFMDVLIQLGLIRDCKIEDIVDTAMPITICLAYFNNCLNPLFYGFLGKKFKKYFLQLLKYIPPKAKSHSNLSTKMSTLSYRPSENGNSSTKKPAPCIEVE
Assay: Receptor Binding Assay: displacement of [125I](Sar1,Ile8)AngII from beef adrenal cortex microsomal membranes
Conditions: 60 min room temperature
From the text: Beef adrenals are obtained from a local slaughter house (Maxwell-Cohen).
[^125 I](Sar^1,Ile^8)AngII, S.A. 2200 Ci/mmole, is purchased from Dupont (NEN®, Boston, Mass.). All unlabeled AngII analogs, Dimethylsulfoxide (DMSO), nucleotides, bovine serum albumin (BSA) are purchased from Sigma Chemical Co., St. Louis, Mo. U.S.A.
Approximately sixteen (16) to twenty (20) beef adrenal glands are processed as follows: fresh adrenal glands received on crushed ice are cleaned of fatty tissues and the tough membranes encapsulating the glands are removed and discarded. The brownish tissue forming the adrenal cortex is scraped off and finely minced with scissors before homogenization. Care is taken to avoid contamination with medullary tissue during dissection. The scraped cortices are suspended in twenty volumes of an ice-cold buffer medium consisting of 10 mM Tris.HCl (pH 7.4 at 22° C.) and containing 1.0 mM EDTA and 0.2M sucrose. Unless otherwise indicated, all subsequent operations are done at 4° C. […] The homogenate is centrifuged first at low speed (3,000×g) for 10 min. The resulting pellet is discarded and the supernatant fluid recentrifuged at 10,000×g for 15 minutes to give a P2 pellet. This P2 pellet is discarded and the liquid phase is carefully decanted off in clean centrifuge tubes and recentrifuged at high speed (100,000×g) for 60 min. The translucent final pellet is harvested and combined in a small volume (20-50.0 ml) of 50.0 mM Tris.HCl buffer, pH 7.2. A 100 ul aliquot is withdrawn and the protein content of the preparation is determined by the Lowry's method (Lowry, O. H., Rosebrough, N. F., Farr, A. L. and Randall, R. J., Protein measurement with Folin phenol reagent. J. Biol. Chem., […], 265-275, 1951). The pelleted membrane is reconstituted in 50.0 mM Tris.HCl buffer containing 0.1 mM of phenylmethylsulfonyl fluoride (PMSF) to give approximately a protein concentration of 2.5 mg per ml of tissue suspension. The membrane preparation is finally aliquoted in 1.0 ml volumes and stored at -70° C. until use in the binding assays.
The binding of [^125 I](Sar^1.Ile^8)AngII to microsomal membranes is initiated by the addition of reconstituted membranes (1:10 vols.) in freshly made 50.0 mM Tris.HCl buffer, pH 7.4 containing 0.25% heat inactivated bovine serum albumin (BSA): 80 ul membrane protein (10 to 20 ug/assay) to wells already containing 100 ul of incubation buffer (as described above) and 20 ul [^125 I](Sar^1,Ile^8)AmgII (Specific Activity, 2200 Ci/mmole) Non-specific binding is measured in the presence of 1.0 uM unlabeled (Sar^1,Ile^8)AngII, added in 20 ul volume. Specific binding for [^125 I](Sar^1,Ile^8) AngII is greater than 90%. In competition studies, experimental compounds are diluted in dimethylsulfoxide (DMSO) and added in 20 ul to wells before the introduction of tissue membranes. This concentration of DMSO is found to have no negative effects on the binding of [^ 125I] (Sar^1,Ile^8) AngII to the membranes. Assays are performed in triplicate. The wells are left undisturbed for 60 min. at room temperature. […] Presoaking the filter sheet in 0.1% polyethyleneimine in normal saline (PEI/Saline) greatly reduces the radioactivity retained by the filter blanks. […] The filters are removed from the filter grid and counted in a Parkard® Cobra Gamma Counder for 1 min. […] The binding data are analyzed by the non-linear interactive "LUNDON-1" program (LUNDON SOFTWARE Inc., Cleveland, Ohio U.S.A.).

IC50: 37 nM
SMILES: CCCCc1nc2ccc([C@H]3OC[C@@H]4ON5[C@@H](CCC5(C)C)[C@@H]43)cc2c(=O)n1Cc1ccc(-c2ccccc2-c2nnn[nH]2)cc1 (relative stereo) [Example 8, (3α, 3aα, 8aβ, 8bα)'-2-Butyl-6-(6,6-dimethylocta hydrofuro[3,4-d][1,2-b]isoxazol-3-yl)-3[[2'-(1H-tetrazol-5-yl)[1,1'biphenyl]-4yl]methyl]-4(3H) quinazolinone]
